“Also recorded” adds a separate entry of the source. Read-outs that look alike come from different tables or passages of the source.
How the values were obtained:
[1] = for Maximum tolerated dose (MTD): first interim analysis, highest dose 104.3 mg/kg per dose
Protocol: An interim analysis was performed on the study participants.
(§1) A standard 3×3 phase I dose-escalation design was used with patients (n=31) with advanced solid malignancies.
Pharmacokinetic (PK) information was calculated with serial serum collection data. Tumor response was determined using RECIST 1.1.

[2] = tested on: advanced solid malignancies
Protocol: The study was also performed to examine preliminary efficacy (using RECIST 1.1 criteria), overall clinical benefit, and progression free survival. An interim analysis was performed on the study participants.
as §1
Tumor response was determined using RECIST 1.1.
An exploratory assessment of antitumor activity was undertaken during the study using modified Response Criteria in Solid Tumors (RECIST) v1.1. Tumors were measured at baseline or screening, at the end of Cycle 1 and Cycle 2 treatments, and once every 2 treatment cycles (2 months) thereafter in the absence of clinically rapid progression of disease.

[3] = Phase I trial pharmacokinetic analysis (serial serum collection)
Protocol: Pharmacokinetic (PK) information was calculated with serial serum collection data. Tumor response was determined using RECIST 1.1. Clinical benefit (decreased pain, increased quality of life) was assessed by the treating physician.
Pharmacokinetic and pharmacodynamic analyses were performed during the study as well.

[4] = Example 4, of 39 evaluable subjects
[5] = person, pleomorphic fibrosarcoma, 6 cycles, 22.5 to 58.7 mg/kg/dose

COC1=C(OC)C(=O)C(C/C=C(\C)CC/C=C(\C)CC/C=C(\C)CC/C=C(\C)CC/C=C(\C)CC/C=C(\C)CC/C=C(\C)CC/C=C(\C)CC/C=C(\C)CCC=C(C)C)=C(C)C1=O [CoQ10, Coenzyme Q10]
Maximum tolerated dose (MTD) ([1]; 104.3 mg/kg): has not been identified; also recorded: had not been reached | Maximum tolerated dose (MTD) ([1]; listed as coenzyme Q10, 104.3 mg/kg): no MTD had been reached | Patients reporting headache during first week of treatment (%) ([1]; in vivo): 29.0% | Patients reporting headache during first week of treatment (number) ([1]; in vivo): Nine | Patients with Grade I asymptomatic elevation of INR (%) ([1]; in vivo): 74.1% | Patients with Grade I asymptomatic elevation of INR (number) ([1]; in vivo): 23 patients | Patients with Grade II INR elevation of greater than 2.0 (%) ([1]; in vivo): 45.1% | Patients with Grade II INR elevation of greater than 2.0 (number) ([1]; in vivo): 14 patients | Primary Reason for Discontinuation: Intolerable Toxicity, % ([1]; in vivo): 8% | Subjects with INR greater than 3 (%) ([1]; in vivo): 12.9% | Subjects with INR greater than 3 (number) ([1]; in vivo): four | Subjects with INR greater than 5 (%) ([1]; in vivo): 6% | Subjects with INR greater than 5 (number) ([1]; in vivo): two | Best Response: Unevaluable, % ([2]; 50 subjects): 20% | Best Response: Unknown, % ([2]; 50 subjects): 2% | Primary Reason for Discontinuation: Progressive Disease, % ([2]; 50 subjects): 52% | Best Response: Complete Response, % ([2]; 50 subjects, RECIST v1.1): 0% | Best Response: Partial Response, % ([2]; 50 subjects, RECIST v1.1): 2% | Best Response: Progressive Disease, % ([2]; 50 subjects, RECIST v1.1): 30% | Best Response: Stable Disease, % ([2]; 50 subjects, RECIST v1.1): 46% | Best outcome of partial response (number of subjects) [2, 4]: 2 subjects | Best outcome of progressive disease (number of subjects) [2, 4]: 15 subjects | Best outcome of stable disease (number of subjects) [2, 4]: 22 subjects | Average time on treatment of patients with clinical benefit ([2]; first interim analysis): 16 weeks | Median Progression Free survival ([2]; first interim analysis): 2 months | Patients with a clinical benefit (%) ([2]; first interim analysis, n=31): 61.2% | Patients with a clinical benefit (number) ([2]; first interim analysis, n=31): Nineteen | Average time subjects remained on treatment ([2]; first interim analysis, treatment until clinical progression): 90 days | Progression free survival and/or clinical benefit ([2]; interim data summary): a majority of patients enrolled in this trial had an increased progression free survival and/or clinical benefit | Tumor responses observed ([2]; interim data summary): A partial response and minor response were observed | Evaluable subjects with clinically relevant response by RECIST 1.1 (at least stable disease), number ([2]; of 40 evaluable subjects): 24 subjects | Evaluable subjects with clinically relevant response by RECIST 1.1 (at least stable disease), % ([2]; of 40 evaluable subjects who completed at least one treatment cycle): 60% | Duration of partial response ([2]; one subject with sarcoma of the extremity): at least 6 months | Individual outcome: tumor lesion (CT) ([2]; person, metastatic myxoid liposarcoma, 58.6 mg/kg/dose, four treatment cycles): resolution of their anterior mediastinal lesion | Individual outcome: tumor response ([2]; person, pleomorphic fibrosarcoma with bone metastasis, 6 cycles, 22.5 to 58.7 mg/kg/dose): minor response | Individual outcome: pain [2, 5]: significant improvement in pain | Individual outcome: tumor size (CT) [2, 5]: Tumor shrinkage was also observed | Individual outcome: duration of response ([2]; person, pleomorphic fibrosarcoma, 22.5 to 58.7 mg/kg/dose): over 10 months | Dose-proportionality of AUC ([3]; C31510 formulation, FIG. 5): not strictly proportional to dose | Dependence of t1/2 on dose ([3]; human, IV infusion): little or no dependence on dose | Linearity of pharmacokinetics ([3]; human, IV infusion): linear
